Experiments:
Type in all cases: in vivo
[1] = test system: Abutilon theophrasti (ABUTH); experiment: Post-emergence herbicidal action, greenhouse pot trial; conditions: visual rating after about 3 weeks
How it was run: (§1)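 Sandy loam pots, greenhouse; one-leaf stage (2–3 wk after sowing); WP/EC in water, 0.5% additive, 600 l/ha spray volume; ≤320 g/ha; visual score vs untreated at ~3 wk, 0–100%.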

[2] = test system: Amaranthus retroflexus (AMARE); experiment: as above; conditions: visual rating after about 3 weeks
How it was run: as §1

Bassia scoparia (KCHSC) = experiment: as above
How it was run: as §1

[3] = test system: Echinochloa crus-galli (ECHCG); experiment: as above
How it was run: as §1

[4] = test system: Pharbitis purpurea (PHBPU); experiment: as above; conditions: visual rating after about 3 weeks
How it was run: as §1

[5] = test system: Polygonum convolvulus (POLCO); experiment: as above; conditions: visual rating after about 3 weeks
How it was run: as §1

Setaria viridis (SETVI) = experiment: as above; conditions: for Post-emergence effect at 320 g/ha against SETVI in %: visual rating after about 3 weeks
How it was run: as §1

Viola tricolor (VIOTR) = experiment: as above
How it was run: as §1

[6] = test system: Triticum aestivum (TRZAS); experiment: Post-emergence crop plant compatibility, greenhouse pot trial; conditions: post-emergence, in comparison to untreated controls
Procedure: (§2) Seeds of monocotyledonous and dicotyledonous weeds and crop plants are placed in sandy loam in plastic or organic planting pots, covered with soil and cultivated in a greenhouse under controlled growth conditions. 2 to 3 weeks after sowing, the trial plants are treated at the one-leaf stage. The compounds of the invention, formulated in the form of wettable powders (WP) or as emulsion concentrates (EC), are then sprayed onto the green parts of the plants as aqueous suspension or emulsion with addition of 0.5% additive at a water application rate equivalent to 600 l/ha. After about 3 weeks of keeping the trial plants in the greenhouse under optimum growth conditions, the effect of the preparations is rated visually in comparison to untreated controls. For example, 100% activity=the plants have died, 0% activity=like control plants.
(§3) The observed effects on selected crop plants are reported here in comparison to the untreated controls (values in %). The appendices “a”, “b” and “c” give differentiation by dosage used with otherwise the same useful plants tested.
(§4) As shown by results from Tables B1 to B19, inventive compounds of the general formula (I) in the case of post-emergence treatment have good herbicidal efficacy against harmful plants, for example Abutilon theophrasti (ABUTH), Alopecurus myosuroides (ALOMY), Amaranthus retroflexus (AMARE), Avena fatua (AVEFA), Digitaria sanguinalis (DIGSA), Echinochloa crus-galli (ECHCG), Bassia scoparia (KCHSC), Lolium rigidum (LOLRI), Matricaria inodora (MATIN), Pharbitis purpurea (PHBPU), Polygonum convolvulus (POLCO), Setaria viridis (SETVI), Veronica persica (VERPE) and Viola tricolor (VIOTR) at an application rate of 320 g of active substance or less per hectare, and good crop plant compatibility in the case of organisms such as Oryza sativa (ORYSA), Zea mays (ZEAMX), Brassica napus (BRSNW), Glycine max (GLXMA) and Triticum aestivum (TRZAS) at an application rate of 320 g or less per hectare.

Zea mays (ZEAMX) = experiment: as above; conditions: in comparison to untreated controls
Procedure: as §2, §3, §4

[7] = test system: Alopecurus myosuroides (ALOMY); experiment: Post-emergence herbicidal action, greenhouse pot trial; conditions: 320 g/ha, visual rating after about 3 weeks
How it was run: as §1

Avena fatua (AVEFA) = experiment: as above; conditions: 320 g/ha, visual rating after about 3 weeks
How it was run: as §1

[8] = test system: Digitaria sanguinalis (DIGSA); experiment: as above; conditions: visual rating after about 3 weeks
How it was run: as §1

Lolium rigidum (LOLRI) = experiment: as above; conditions: 320 g/ha, visual rating after about 3 weeks
How it was run: as §1

[9] = test system: Matricaria inodora (MATIN); experiment: as above; conditions: visual rating after about 3 weeks
How it was run: as §1

Glycine max (GLXMA) = experiment: Post-emergence crop plant compatibility, greenhouse pot trial; conditions: in comparison to untreated controls
Procedure: as §2, §3, §4

Oryza sativa (ORYSA) = experiment: as above; conditions: in comparison to untreated controls
Procedure: as §2, §3, §4

Veronica persica (VERPE) = experiment: Post-emergence herbicidal action, greenhouse pot trial; conditions: visual rating after about 3 weeks
How it was run: as §1

[10] = visual rating after about 3 weeks

| SMILES | Post-emergence effect against TRZAS (crop plant compatibility) ([6]; 20 g/ha) [%] | Post-emergence effect against ZEAMX (crop plant compatibility) (Zea mays (ZEAMX); 20 g/ha) [%] | Post-emergence effect at 80 g/ha against ABUTH in % [1] [%] | Post-emergence effect at 320 g/ha against ABUTH in % [1] [%] | Post-emergence effect at 320 g/ha against AMARE in % [2] [%] | Post-emergence effect against KCHSC (Bassia scoparia (KCHSC); 320 g/ha) [%] | Post-emergence effect at 320 g/ha against ECHCG in % [3, 10] [%] | Post-emergence effect at 80 g/ha against PHBPU in % [4] [%] | Post-emergence effect at 320 g/ha against PHBPU in % [4] [%] | Post-emergence effect at 80 g/ha against POLCO in % [5] [%] | Post-emergence effect at 320 g/ha against POLCO in % [5] [%] | Post-emergence effect at 320 g/ha against SETVI in % (Setaria viridis (SETVI)) [%] | Post-emergence effect against VIOTR (Viola tricolor (VIOTR); 20 g/ha) [%] | Post-emergence effect against VIOTR (Viola tricolor (VIOTR); 80 g/ha) [%] | Post-emergence effect against VIOTR (Viola tricolor (VIOTR); 320 g/ha) [%] | Post-emergence effect at 320 g/ha against AVEFA in % (Avena fatua (AVEFA)) [%] | Post-emergence effect at 320 g/ha against DIGSA in % [8] [%] | Post-emergence effect at 320 g/ha against LOLRI in % (Lolium rigidum (LOLRI)) [%] | Post-emergence effect at 80 g/ha against MATIN in % [9] [%] | Post-emergence effect at 320 g/ha against MATIN in % [9] [%] | further results |
| --- | --- | --- | --- | --- | --- | --- | --- | --- | --- | --- | --- | --- | --- | --- | --- | --- | --- | --- | --- | --- | --- |
| CCOC(=O)C(Oc1nn(-c2cc(F)ccc2F)c(-c2cncc(F)c2)c1C1CC1)SC (stereo not drawn) [Example I-05] | 0 | 20 | – | – | – | – | – | – | – | – | – | – | – | – | – | – | – | – | – | – | pest or weed control at 320 g/ha ([3]; Echinochloa crus-galli, 504 h, read-out: Post-emergence effect at 320 g/ha against ECHCG in %): 80%; pest or weed control at 320 g/ha (Setaria viridis (SETVI); Setaria viridis, 504 h, read-out: Post-emergence effect at 320 g/ha against SETVI in %): 90%; Post-emergence effect against GLXMA (crop plant compatibility) (Glycine max (GLXMA); 20 g/ha): 0%; Post-emergence effect against GLXMA (crop plant compatibility) (Glycine max (GLXMA); 80 g/ha): 10%; Post-emergence effect against ORYSA (crop plant compatibility) (Oryza sativa (ORYSA); 20 g/ha): 0%; Post-emergence effect against ORYSA (crop plant compatibility) (Oryza sativa (ORYSA); 80 g/ha): 0%; Post-emergence effect against ORYSA (crop plant compatibility) (Oryza sativa (ORYSA); 320 g/ha): 10%; Post-emergence effect against TRZAS (crop plant compatibility) ([6]; 80 g/ha): 10% |
| COC(=O)CCOC(=O)C(Oc1nn(-c2ncccc2F)c(-c2cncc(F)c2)c1Br)SC (stereo not drawn) [Example I-45] | 0 | 0 | 90 | 90 | 90 | 90 | 90 | 80 | 80 | 80 | 80 | 90 | 80 | 90 | 90 | 100 | 90 | 100 | 90 | 90 | Post-emergence action at 20 g/ha against ABUTH in % [1]: 90%; Post-emergence effect at 20 g/ha against AMARE in % [2]: 80%; Post-emergence effect at 80 g/ha against AMARE in % [2]: 90%; Post-emergence effect at 20 g/ha against KCHSC in % (Bassia scoparia (KCHSC); 20 g/ha, visual rating after about 3 weeks): 90%; Post-emergence effect against KCHSC (Bassia scoparia (KCHSC); 80 g/ha): 90%; Post-emergence effect at 80 g/ha against DIGSA in % [8]: 80%; Post-emergence effect at 20 g/ha against MATIN in % ([9]; 20 g/ha): 80%; Post-emergence effect against ZEAMX (crop plant compatibility) (Zea mays (ZEAMX); 80 g/ha): 0% |
| COC(=O)C(C)COC(=O)C(Oc1nn(-c2ccccc2F)c(-c2ccc(F)nc2)c1I)SC (stereo not drawn) [Example I-53] | 0 | – | – | 80 | 90 | 80 | 100 | – | 80 | – | 90 | 90 | – | 80 | 90 | – | 80 | – | – | 80 | Post-emergence effect against GLXMA (crop plant compatibility) (Glycine max (GLXMA); 20 g/ha): 0%; Post-emergence effect against GLXMA (crop plant compatibility) (Glycine max (GLXMA); 80 g/ha): 0% |

Further lines, with some results ahead:

| Post-emergence effect against TRZAS (crop plant compatibility) ([6]; 20 g/ha) [%] | Post-emergence effect against ZEAMX (crop plant compatibility) (Zea mays (ZEAMX); 20 g/ha) [%] | SMILES | Post-emergence effect at 80 g/ha against ABUTH in % [1] [%] | Post-emergence effect at 320 g/ha against ABUTH in % [1] [%] | Post-emergence effect at 320 g/ha against AMARE in % [2] [%] | Post-emergence effect against KCHSC (Bassia scoparia (KCHSC); 320 g/ha) [%] | Post-emergence effect at 320 g/ha against ECHCG in % [3, 10] [%] | Post-emergence effect at 80 g/ha against PHBPU in % [4] [%] | Post-emergence effect at 320 g/ha against PHBPU in % [4] [%] | Post-emergence effect at 80 g/ha against POLCO in % [5] [%] | Post-emergence effect at 320 g/ha against POLCO in % [5] [%] | Post-emergence effect at 320 g/ha against SETVI in % (Setaria viridis (SETVI)) [%] | Post-emergence effect against VIOTR (Viola tricolor (VIOTR); 20 g/ha) [%] | Post-emergence effect against VIOTR (Viola tricolor (VIOTR); 80 g/ha) [%] | Post-emergence effect against VIOTR (Viola tricolor (VIOTR); 320 g/ha) [%] | Post-emergence effect at 320 g/ha against AVEFA in % (Avena fatua (AVEFA)) [%] | Post-emergence effect at 320 g/ha against DIGSA in % [8] [%] | Post-emergence effect at 320 g/ha against LOLRI in % (Lolium rigidum (LOLRI)) [%] | Post-emergence effect at 80 g/ha against MATIN in % [9] [%] | Post-emergence effect at 320 g/ha against MATIN in % [9] [%] | further results |
| --- | --- | --- | --- | --- | --- | --- | --- | --- | --- | --- | --- | --- | --- | --- | --- | --- | --- | --- | --- | --- | --- |
| 0 | 0 | COC(=O)CCOC(=O)C(Oc1nn(-c2ncccc2F)c(-c2ccc(F)nc2)c1Br)SC (single isomer, unassigned) [Example I-22] | 90 | 90 | 80 | 90 | 90 | 90 | 90 | 90 | 90 | 80 | 80 | 90 | 90 | – | – | – | – | – | Post-emergence effect at 20 g/ha against PHBPU in % ([4]; 20 g/ha): 80% |
| – | 0 | COC(=O)CCOC(=O)C(Oc1nn(-c2ncccc2F)c(-c2ccc(F)nc2)c1Br)SC (single isomer, unassigned) [Example I-23] | 80 | 90 | 80 | – | 90 | 80 | 90 | 80 | 90 | 90 | – | 80 | 90 | 80 | 90 | 90 | 80 | 90 | Post-emergence effect at 320 g/ha against ALOMY in % [7]: 80%; Post-emergence effect at 80 g/ha against DIGSA in % [8]: 90%; Post-emergence effect at 80 g/ha against ECHCG in % ([3]; 80 g/ha, visual rating after about 3 weeks): 90% |
| 0 | 0 | COC(=O)CCOC(=O)C(Oc1nn(-c2ccccc2F)c(-c2ccc(F)nc2)c1I)SC (stereo not drawn) [Example I-54] | – | 80 | 90 | – | 90 | – | – | – | 80 | 90 | – | 80 | 90 | – | 80 | – | – | 80 | Post-emergence effect at 320 g/ha against ALOMY in % [7]: 80%; Post-emergence effect at 80 g/ha against AMARE in % [2]: 90%; Post-emergence effect against GLXMA (crop plant compatibility) (Glycine max (GLXMA); 20 g/ha): 0%; Post-emergence effect against GLXMA (crop plant compatibility) (Glycine max (GLXMA); 80 g/ha): 0% |
| 20 | 0 | COC(=O)CCOC(=O)C(Oc1nn(-c2ncccc2F)c(-c2cncc(F)c2)c1C1CC1)SC (stereo not drawn) [Example I-63] | 80 | 90 | 90 | 90 | 90 | 90 | 90 | – | 80 | 90 | 90 | 90 | 90 | 100 | – | 90 | 80 | 90 | Post-emergence action at 20 g/ha against ABUTH in % [1]: 80%; Post-emergence effect at 20 g/ha against AMARE in % [2]: 80%; Post-emergence effect at 80 g/ha against AMARE in % [2]: 80%; Post-emergence effect at 80 g/ha against VERPE in % (Veronica persica (VERPE); 80 g/ha): 80%; Post-emergence effect at 320 g/ha against VERPE in % (Veronica persica (VERPE); 320 g/ha): 90% |

Source: patent US20250026724A1, “(1,4,5-TRISUBSTITUTED 1H-PYRAZOL-3-YL)OXY-2-ALKYLTHIOALKYL ACIDS AND -ALKYL ACID DERIVATIVES, SALTS THEREOF AND USE THEREOF AS ACTIVE HERBICIDAL INGREDIENTS” (BAYER AKTIENGESELLSCHAFT, priority 2021, published 2025)
